Results published in US11919856B2, “Compounds” (UCL BUSINESS LTD, priority 2018, dated 2024).

Legend:
[1] = molecular target: T1, Z-alpha-1-antitrypsin (Z-A1AT) (Homo sapiens, UniProt P01009, E366K/V237A); assay: Inhibition of Z-alpha-1-antitrypsin polymerisation TR-FRET assay; format: biochemical; conditions: mean, 5 nM Z-A1AT, 72 hours at 37° C.
T1 construct: Z-alpha-1-antitrypsin was purified from human plasma; from tissue; host or cells: human plasma of ZZ homozygous donors
From the text: The potencies of the compounds of the invention for inhibition of Z-alpha-1-antitrypsin (Z-A1AT) polymerisation can be determined by a time-resolved fluorescence energy transfer (TR-FRET) assay performed on purified Z-A1AT as described herein. […] Mean activity data for the assay described below for compounds 1-4:
Inhibition of Z-Alpha-1-Antitrypsin Polymerisation Assay Protocol
Z-alpha-1-antitrypsin was purified from human plasma of donors homozygous for the Z-A1AT form. The purification was performed according to a published protocol (Lomas et al. Biochemistry 1993; 32:500-508) involving ammonium sulphate precipitation, thiol exchange fractionation, and anion exchange fractionation.
Purified Z-A1AT was diluted to 5 nM in PBS buffer with 0.01% Tween-20 and mixed with different concentrations of inhibitor compounds dissolved in DMSO, in 384-well assay plates. Following incubation for 72 hours at 37° C., the amount of Z-A1AT polymer was detected using a time-resolved fluorescence resonance energy transfer (TR-FRET) assay format, by adding an antibody detection mix to the assay plates. The detection mix contained an A1AT-polymer specific monoclonal antibody (Miranda et al. Hepatology 2010; 52: 1078-1088), Terbium-labelled anti-mouse antibody, a polyclonal rabbit anti-A1AT antibody, and an Alexa488-labelled anti-rabbit antibody. TR-FRET data were normalised to controls (DMSO vehicle control giving 0% inhibition, saturating concentrations of an active compound giving 100% inhibition), and IC50 values were derived by fitting 4-parameter logistic curves to the normalised data.
An antibody-based time-resolved fluorescence resonance energy transfer (TR-FRET) assay was used to monitor the polymerisation of 5 nM Z α1-antitrypsin following incubation with varying concentrations of compounds at 37° C. for 72 hours. This assay used the 2C1 monoclonal antibody that is specific to pathological polymers of α1-antitrypsin (Miranda et al. Hepatology 2010; 52: 1078-1088), a polyclonal antibody that binds to all forms of α1-antitrypsin, an anti-mouse IgG fluorescence donor (Eu-W1024) and an anti-rabbit IgG acceptor (APC).

α1-antitrypsin = assay: Equilibrium unfolding with guanidine hydrochloride (bis-ANS fluorescence); format: biochemical; conditions: guanidinium hydrochloride, 50 μM Compound 1; 1.2 M in its absence
Method: Bis-ANS is a dye that reports the appearance of the unfolding intermediate of α1-antitrypsin (Dafforn et al. J Biol Chem. 1999; 274:9548-55.). In a microplate, 10 μl aliquots of M and Z α1-antitrypsin at 0.5 mg/ml with 100 μM bis-ANS and 100 μM Compound 1 (or an equivalent volume of DMSO) were rapidly mixed with various concentrations of guanidine hydrochloride giving a final concentration of 0-6 M denaturant in PBS. Fluorescence intensity measurements of bis-ANS (λex=385 nm, λem=490 nm) were recorded once a stable signal was achieved, and the values scaled to lie between 0 and 1.0.
Polymerisation of α1-antitrypsin occurs from a transient intermediate state known as M*, that is readily populated by the Z variant. One of the hallmarks of M* is its recognition by environment-sensitive fluorescent reporter dyes. Thermal shift assays that make use of the dye SYPRO Orange report the stability of the protein native state against heat-induced unfolding. […] Native state stability can also be probed by equilibrium unfolding using chemical denaturants, where a peak in bis-ANS fluorescence corresponds with a maximally populated unfolding intermediate.

human serum albumin = human serum albumin (Homo sapiens, UniProt P02768); assay: Binding to human serum albumin; format: in vitro ADME
Chain of human serum albumin (P02768 25-609): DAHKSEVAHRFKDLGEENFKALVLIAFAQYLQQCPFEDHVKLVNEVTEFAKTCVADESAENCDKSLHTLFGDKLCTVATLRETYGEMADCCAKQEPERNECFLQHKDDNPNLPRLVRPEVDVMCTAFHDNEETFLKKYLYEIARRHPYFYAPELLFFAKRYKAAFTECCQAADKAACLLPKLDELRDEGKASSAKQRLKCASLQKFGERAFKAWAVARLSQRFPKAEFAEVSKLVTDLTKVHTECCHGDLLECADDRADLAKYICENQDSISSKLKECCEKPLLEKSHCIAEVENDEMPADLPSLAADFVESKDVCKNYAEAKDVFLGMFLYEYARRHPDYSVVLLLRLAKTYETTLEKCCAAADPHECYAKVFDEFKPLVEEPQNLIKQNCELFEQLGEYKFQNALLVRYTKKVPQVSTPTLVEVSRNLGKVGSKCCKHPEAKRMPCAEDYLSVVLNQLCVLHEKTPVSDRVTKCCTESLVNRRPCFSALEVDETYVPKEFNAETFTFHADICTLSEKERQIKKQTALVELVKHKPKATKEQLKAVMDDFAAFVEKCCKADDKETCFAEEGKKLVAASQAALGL

Z α1-antitrypsin = Z α1-antitrypsin (Homo sapiens, UniProt P01009, E366K/V237A); assay: Compound association experiments (intrinsic tryptophan fluorescence), Z α1-antitrypsin; format: binding; set-up: a random insertion of the human Z α1-antitrypsin gene; from tissue; host or cells: liver and plasma of Z α1-antitrypsin transgenic mice (human Z transgene)
Chain of Z α1-antitrypsin (P01009 25-418 V237A/E366K): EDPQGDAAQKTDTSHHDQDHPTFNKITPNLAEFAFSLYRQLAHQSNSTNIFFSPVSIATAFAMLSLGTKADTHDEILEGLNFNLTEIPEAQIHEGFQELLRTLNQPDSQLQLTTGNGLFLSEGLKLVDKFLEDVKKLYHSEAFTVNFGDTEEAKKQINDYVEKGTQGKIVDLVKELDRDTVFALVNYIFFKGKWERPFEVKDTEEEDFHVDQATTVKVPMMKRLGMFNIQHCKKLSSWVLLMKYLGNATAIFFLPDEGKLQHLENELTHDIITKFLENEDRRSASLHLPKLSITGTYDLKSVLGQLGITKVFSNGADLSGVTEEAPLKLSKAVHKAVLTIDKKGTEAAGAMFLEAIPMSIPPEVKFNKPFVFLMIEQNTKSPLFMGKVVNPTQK
Method: The intrinsic tryptophan fluorescence of α1-antitrypsin is dominated by Trp194 in the breach region (Tew et al. J Mol Biol. 2001 Nov. 9; 313(5):1161-9) and can be used to monitor the progress of compound binding. Plasma M and Z α1-antitrypsin were diluted to 0.2 mg/ml in 100 μM PBS, and Compound 1 (or an equivalent volume of DMSO) added to a concentration of 10 μM. Fluorescence (λex=280 nm, λem=330 nm) was monitored for at least 2 hours, and the half-time of change was calculated.
Kinetic data in stopped flow experiments were fitted to exponential decay curves with offset and linear slope, to account for a constant drift in the background, resulting in observed pseudo-first-order rate constants k(obs): y=A0·e^−k(obs)t+slope·t+offset where t=time and Ao=amplitude at t=0. The second-order on-rate was then obtained as the slope when plotting k(obs) values versus compound concentration. Off-rates were calculated from the on-rates and the KD values determined from the binding assays. Cell Biology

T1 sequence (P01009 25-418 V237A/E366K): as above

## CCC[C@@H](NC(=O)c1cccc2c1CC(=O)N2)[C@@H](O)c1cccc(F)c1C [Compound 1, N-[(1S,2R)-1-(3-fluoro-2-methylphenyl)-1-hydroxypentan-2-yl]-2-oxo-2,3-dihydro-1H-indole-4-carboxamide]
[1]
  IC50: 5.01 nM
α1-antitrypsin
  denaturant concentration at peak bis-ANS fluorescence (maximally populated unfolding intermediate): 1.8 M
Human serum albumin
  binding to human serum albumin: 84.2%
Z α1-antitrypsin; calculated from on-rate and KD, read-out: first-order dissociation rate
  koff: 6.1e-05 s⁻¹
Z α1-antitrypsin; read-out: second-order association rate
  kon: 41000 M⁻¹ s⁻¹
